Key:
target cells = test: Functional properties of BrdU labeled target cells (viability, proliferation, TNF family receptor expression); format: cell-based; conditions: trypan blue dye exclusion; increase of cell numbers in culture; flow cytometry
Text: In order to determine whether BrdU labeling of cell nuclear DNA affects cellular functions, the inventor examined viability (by trypan blue dye exclusion assay) and proliferation (by evaluation of increase of cell numbers in culture) of target cells, after they were labeled with the DNA metabolic label. In addition, expression of the cell membrane-bound TNF family receptors involved in apoptosis mediated by immune effector cells, such as TNFR1, TNFR2, Fas and LT-βR, was investigated using flow cytometry.

BT-20 tumor cells = test: BrdU labeling of cell nuclear DNA of target cells in microwells of Tarasaki plates; format: cell-based, human; conditions: 5 μM of BrdU, co-incubated for 24 hours
Protocol: FIG. 2. Graph depicting BrdU concentration versus incubation period for labeling of target cells in microwells of Tarasaki plates. BT-20 tumor cells (250/microwell) were seeded in the miniplates and incubated for 24 hours. Various concentrations of BrdU then were added to the microwells containing adherent tumor cells, and the incubation was continued for various periods of time, as indicated. After this labeling, the adherent tumor cells were fixed and stained, with an isotype-matched control or an anti-BrdU mAb, and then visually analyzed. Each point on the figure represents a mean value of a triplicate. SD was less than 10% of the mean values.
BrdU-labeling of target cells in microwells. Suspensions of tumor target cells were prepared from their adherent monolayers, as described above. Target cells were resuspended in tissue culture medium (e.g., RPMI-1640 supplemented with 10% FCS) in an adequate concentration, to contain 100 to 500 cells per 10 μl. BrdU solution was added to this cell suspension, to get its final concentration of 5 μM. In some experiments, to determine the optimal labeling conditions, the concentration of BrdU was varied. […]

Q: With O=c1[nH]c(=O)n([C@H]2C[C@H](O)[C@@H](CO)O2)cc1Br [BrdU, 5-bromo-2′-deoxyuridine] as the molecule, how does the “effect of BrdU labeling on cellular functions tested (viability, proliferation, expression of TNFR1, TNFR2, Fas and LT-βR)” value (target cells) read?
A: no significant effect

Q: What about the “strong and uniformed labeling of nuclei” value (BT-20 tumor cells) of the same molecule?
A: 90%
